Measured values as given in ChEMBL document CHEMBL1201862, “PubChem BioAssay data set” (2004).
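Interpolation was linear, between the two tested concentrations surrounding the appropriate level; five concentrations were tested over 48 hours in 96-well plates. GI50 = concentration required for 50% inhibition of growth.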 Calls of active or inactive are those of the source. Cut-off read from the data, not from the text of the source: active = GI50 up to about 1.1 µM and inactive = higher.

Columns and labels:
Experiment in all cases: NCI anticancer screen, dose series, 48 h
786-0 = tested on: 786-0
ACHN = tested on: ACHN
COLO 205 = tested on: COLO 205
HCT-15 = tested on: HCT-15
HL-60 = tested on: HL-60
Hs-578T = tested on: Hs-578T
KM12 = tested on: KM12
LOX IMVI = tested on: LOX IMVI
MCF7 = tested on: MCF7
MDA-MB-231 = tested on: MDA-MB-231
MOLT-4 = tested on: MOLT-4
Malme-3M = tested on: Malme-3M
NCI-H226 = tested on: NCI-H226
OVCAR-3 = tested on: OVCAR-3
SF-268 = tested on: SF-268
SF-539 = tested on: SF-539
SK-MEL-2 = tested on: SK-MEL-2
TK-10 = tested on: TK-10
UACC-257 = tested on: UACC-257
UACC-62 = tested on: UACC-62

SMILES	GI50 (786-0)	GI50 (ACHN)	GI50 (COLO 205)	GI50 (HCT-15) [µM]	GI50 (HL-60)	GI50 (Hs-578T)	GI50 (KM12)	GI50 (LOX IMVI)	GI50 (MCF7)	GI50 (MDA-MB-231)	GI50 (MOLT-4)	GI50 (Malme-3M)	GI50 (NCI-H226)	GI50 (OVCAR-3)	GI50 (SF-268)	GI50 (SF-539)	GI50 (SK-MEL-2)	GI50 (TK-10)	GI50 (UACC-257)	GI50 (UACC-62)
CCOC(=O)c1c(C)n(CCN2CCN(C)CC2)c2ccc(OC)cc12	38 µM (inactive)	65 µM (inactive)	16.9 µM (inactive)	28.8	19.6 µM (inactive)	55.5 µM (inactive)	44.3 µM (inactive)	16.6 µM (inactive)	33.6 µM (inactive)	24.5 µM (inactive)	22.6 µM (inactive)	21.9 µM (inactive)	29.7 µM (inactive)	> 100 µM (inactive)	53.7 µM (inactive)	30 µM (inactive)	17.6 µM (inactive)	33.3 µM (inactive)	16.9 µM (inactive)	17 µM (inactive)
C[C@]12CC[C@@H]3c4cc(OCC(F)(F)F)c(O)cc4CC[C@H]3[C@@H]1CC[C@@H]2O	3.24 µM (inactive)	7.74 µM (inactive)	15 µM (inactive)	0.762	0.403 µM (active)	2.83 µM (inactive)	4.06 µM (inactive)	2.94 µM (inactive)	2.36 µM (inactive)	0.536 µM (active)	1 µM (active)	0.673 µM (active)	7.05 µM (inactive)	0.459 µM (active)	9.29 µM (inactive)	1.38 µM (inactive)	4.55 µM (inactive)	12 µM (inactive)	7.1 µM (inactive)	2.32 µM (inactive)
CCCCOC(=O)N[C@H]1CCc2cc(OC)c(OC)c(OC)c2-c2ccc(SC)c(=O)cc21	< 0.01 µM (active)	< 0.0114 µM (active)	< 0.01 µM (active)	< 0.01	0.0123 µM (active)	< 0.01 µM (active)	< 0.01 µM (active)	< 0.01 µM (active)	< 0.01 µM (active)	< 0.01 µM (active)	< 0.01 µM (active)	< 0.01 µM (active)	0.0931 µM (active)	< 0.01 µM (active)	< 0.01 µM (active)	< 0.01 µM (active)	< 0.01 µM (active)	0.198 µM (active)	< 0.0286 µM (active)	< 0.01 µM (active)
O=C1Cc2c(-c3ccc(Cl)cc3)cc(-c3ccccc3)nc2-c2ccccc2N1	2.03 µM (inactive)	5.09 µM (inactive)	2.46 µM (inactive)	4.85	10.7 µM (inactive)	7.26 µM (inactive)	9.25 µM (inactive)	6.56 µM (inactive)	9.16 µM (inactive)	4.35 µM (inactive)	9.53 µM (inactive)	17 µM (inactive)	10.8 µM (inactive)	11.7 µM (inactive)	12.1 µM (inactive)	8.87 µM (inactive)	26.6 µM (inactive)	6.07 µM (inactive)	25.4 µM (inactive)	11.9 µM (inactive)
CC(C)(C)OC(=O)NCCNC(=O)CN(CC(=O)O)C1CCCCC1N(CC(=O)O)CC(=O)O (stereo not given)	> 100 µM (inactive)	> 100 µM (inactive)	> 100 µM (inactive)	> 100	> 100 µM (inactive)	> 100 µM (inactive)	> 100 µM (inactive)	> 100 µM (inactive)	> 100 µM (inactive)	> 100 µM (inactive)	> 100 µM (inactive)	> 100 µM (inactive)	> 100 µM (inactive)	> 100 µM (inactive)	> 100 µM (inactive)	> 100 µM (inactive)	> 100 µM (inactive)	> 100 µM (inactive)	> 100 µM (inactive)	> 100 µM (inactive)
COc1ccc2c(c1)N(C(C)=O)CN1C(=O)CCC21 (stereo not given)	> 100 µM (inactive)	> 100 µM (inactive)	> 100 µM (inactive)	> 100	48.2 µM (inactive)	> 100 µM (inactive)	> 100 µM (inactive)	> 100 µM (inactive)	> 100 µM (inactive)	> 100 µM (inactive)	46 µM (inactive)	> 100 µM (inactive)	> 100 µM (inactive)	> 100 µM (inactive)	> 100 µM (inactive)	> 100 µM (inactive)	> 100 µM (inactive)	> 100 µM (inactive)	> 100 µM (inactive)	> 100 µM (inactive)
CSC1(Cc2ccccn2)C(=O)Nc2cccc([N+](=O)[O-])c21 (stereo not given)	> 100 µM (inactive)	> 100 µM (inactive)	> 100 µM (inactive)	> 100	42.3 µM (inactive)	> 100 µM (inactive)	> 100 µM (inactive)	53.5 µM (inactive)	76 µM (inactive)	> 100 µM (inactive)	33.3 µM (inactive)	47.9 µM (inactive)	> 100 µM (inactive)	> 100 µM (inactive)	> 100 µM (inactive)	> 100 µM (inactive)	> 100 µM (inactive)	> 100 µM (inactive)	> 100 µM (inactive)	> 100 µM (inactive)
CC[S+]([O-])c1c2cc(OC)ccc2nc2ccc(OC)cc12 (stereo not given)	2.56 µM (inactive)	4.79 µM (inactive)	6.08 µM (inactive)	6.75	4.99 µM (inactive)	13.1 µM (inactive)	16.2 µM (inactive)	2.58 µM (inactive)	2.84 µM (inactive)	5.62 µM (inactive)	4.07 µM (inactive)	5.12 µM (inactive)	21.8 µM (inactive)	6 µM (inactive)	14.5 µM (inactive)	6.79 µM (inactive)	17.5 µM (inactive)	5.38 µM (inactive)	5.45 µM (inactive)	16.9 µM (inactive)
Cc1c(/N=C\c2ccc(N(CCC#N)CCC#N)cc2)c(=O)n(-c2ccccc2)n1C	24.4 µM (inactive)	22.5 µM (inactive)	> 100 µM (inactive)	> 100	> 100 µM (inactive)	38 µM (inactive)	> 100 µM (inactive)	> 100 µM (inactive)	> 63.7 µM (inactive)	77.4 µM (inactive)	> 100 µM (inactive)	> 100 µM (inactive)	> 100 µM (inactive)	> 90.6 µM (inactive)	64.6 µM (inactive)	31.6 µM (inactive)	> 96.6 µM (inactive)	24.1 µM (inactive)	> 100 µM (inactive)	> 100 µM (inactive)
CN1C(=O)C2CCC(=O)N2c2cccnc21 (stereo not given)	> 100 µM (inactive)	> 100 µM (inactive)	> 100 µM (inactive)	> 100	> 100 µM (inactive)	> 100 µM (inactive)	> 100 µM (inactive)	> 100 µM (inactive)	> 100 µM (inactive)	> 100 µM (inactive)	> 100 µM (inactive)	> 100 µM (inactive)	> 100 µM (inactive)	> 100 µM (inactive)	> 100 µM (inactive)	> 100 µM (inactive)	> 100 µM (inactive)	> 100 µM (inactive)	> 100 µM (inactive)	> 100 µM (inactive)
O=C(/C=C1\C[C@H]2C=Nc3ccccc3C(=O)N2C1)NCCCNC(=O)/C=C1\C[C@H]2C=Nc3ccccc3C(=O)N2C1	3.03 µM (inactive)	14.9 µM (inactive)	12.9 µM (inactive)	18.1	8.73 µM (inactive)	32 µM (inactive)	16 µM (inactive)	6.25 µM (inactive)	16.7 µM (inactive)	16.1 µM (inactive)	2.62 µM (inactive)	15.9 µM (inactive)	20.7 µM (inactive)	12 µM (inactive)	16.7 µM (inactive)	18.3 µM (inactive)	19.3 µM (inactive)	19.8 µM (inactive)	16.5 µM (inactive)	15.7 µM (inactive)
COC1C=COC2(C)Oc3c(C)c(O)c4c(c3C2=O)/C(=N/C2CCC(O)OC2C)C=C(NC(=O)/C(C)=C\C(=O)C2CC2C(O)C(C)C(O)C(C)C(OC(C)=O)C1C)C4=O (stereo not given)	1.66 µM (inactive)	3.13 µM (inactive)	1.33 µM (inactive)	2.94	2.14 µM (inactive)	2.41 µM (inactive)	2.84 µM (inactive)	1.61 µM (inactive)	1.89 µM (inactive)	2.07 µM (inactive)	1.94 µM (inactive)	1.69 µM (inactive)	2.65 µM (inactive)	0.365 µM (active)	2.97 µM (inactive)	2.33 µM (inactive)	3.48 µM (inactive)	2.9 µM (inactive)	2.22 µM (inactive)	2.01 µM (inactive)
COc1ccc(NC(=O)C2=C(SC)C(C#N)C(=O)N=C2N)cc1 (stereo not given)	65.8 µM (inactive)	> 100 µM (inactive)	55.7 µM (inactive)	> 100	31.2 µM (inactive)	89.1 µM (inactive)	0.369 µM (active)	> 100 µM (inactive)	> 100 µM (inactive)	> 100 µM (inactive)	55.3 µM (inactive)	26.9 µM (inactive)	> 100 µM (inactive)	> 100 µM (inactive)	> 100 µM (inactive)	> 100 µM (inactive)	> 100 µM (inactive)	> 100 µM (inactive)	> 100 µM (inactive)	> 100 µM (inactive)
CC[C@H](C)[C@H]1NC(=O)[C@@H](NC(=O)[C@@H](CC(C)C)N(C)CC2CCCN2C(=O)C(C)=O)[C@@H](C)OC(=O)[C@H](Cc2ccc(OC)cc2)N(C)C(=O)C2CCCN2C(=O)[C@H](CC(C)C)NC(=O)[C@@H](C)C(=O)[C@H](C(C)C)OC(=O)C[C@@H]1O (stereo not given in full)	0.00494 µM (active)	0.00444 µM (active)	0.00293 µM (active)	0.0769	0.00476 µM (active)	0.00405 µM (active)	0.00302 µM (active)	0.00291 µM (active)	< 0.0025 µM (active)	0.00432 µM (active)	< 0.0025 µM (active)	0.00681 µM (active)	0.0152 µM (active)	0.00324 µM (active)	0.00488 µM (active)	< 0.0025 µM (active)	0.00351 µM (active)	0.00853 µM (active)	0.00443 µM (active)	0.00294 µM (active)
